The test system of series [1] is RAW264.7. Nature of the series: (§1) Cytotoxicity against mouse RAW264.7 cells assessed as cell viability at 20 uM after 24 hrs by MTT assay in presence of LPS. In kind it is cell-based. The conditions noted are these: raw264.7, 24 h, 20 µM. A general note: Tetrazolium assays rely on reduction of a dye to a coloured formazan, in cell work by metabolically active cells.

Series [2] has as its system RAW264.7. Nature of the series: Antiinflammatory activity in mouse RAW264.7 cells assessed as inhibition of LPS-induced TNF-alpha release at 20 uM after 24 hrs by ELISA. The class given is functional. The conditions noted are these: RAW264.7, 24 h. On the technique in general: In an ELISA, binding on a coated surface is turned into a signal by an enzyme label.
Series [3] relates to Rattus norvegicus. Nature of the series: Antiinflammatory activity in albino Wistar rat paw edema model assessed as inhibition of carrageenan-induced paw edema at 20 mg/kg, po administered 1 hr prior to carrageenan challenge measured after 3 to 5 hrs by plethysmometry relative to vehicle-treated control. The class given is functional. (In the carrageenan paw model, swelling and tenderness develop within hours.)

Series [4] can be described thus: as §1. The class given is cell-based. The conditions noted are these: RAW264.7 cells, read-out: Activity.
Series [5] relates to Rattus norvegicus. Nature of the series: Toxicity in rat assessed as damage to epithelial layer of stomach at 60 mg/kg, po after 5 hrs. The class given is organism-based. Also noted: dose 60 mg/kg, route oral. The conditions noted are these: in vivo.
The subject of series [6] is Rattus norvegicus. As to the kind of experiment: Toxicity in rat assessed as ulceration at 60 mg/kg, po after 5 hrs. In kind it is organism-based. Also noted: dose 60 mg/kg, route oral. The conditions noted are these: in vivo.

A value given as a limit tells only on which side of the number the result lay.

As for `COc1ccc(C2CC(c3ccc(Cl)cc3)=NN2c2nc3ccc(S(N)(=O)=O)cc3s2)cc1` (stereo unspecified), the Activity result with RAW264.7 [1] is recorded as “Toxic”. The inhibition at 20 µM in the series with RAW264.7 [2] came to 38%. For the same compound, the inhibition in vivo at 20 mg/kg with Rattus norvegicus [3] stood at 67.7%.

For the compound `NS(=O)(=O)c1ccc2nc(N3N=C(c4ccc(Cl)cc4)CC3c3ccccc3Cl)sc2c1` (stereo unspecified), the viability at 24 h, 20 µM in series [4] is more than 90%. Moreover, the inhibition at 20 µM in the series with RAW264.7 [2] came out at 38%. Moreover, the Activity entry with Rattus norvegicus [5] and in the series on Rattus norvegicus [6] was “Non-toxic” throughout.

With `NS(=O)(=O)c1ccc2nc(N3N=C(c4ccc(Cl)cc4)CC3c3ccc(Cl)cc3)sc2c1` (stereo unspecified), the viability at 24 h, 20 µM in series [4] was more than 90%. For the same compound, the inhibition at 20 µM with RAW264.7 [2] worked out at 38%. Further, the Activity result in the series with Rattus norvegicus [5] and in the series with Rattus norvegicus [6] was “Non-toxic” throughout.

For `NS(=O)(=O)c1ccc2nc(N3N=C(c4ccc(Cl)cc4)CC3c3ccccc3)sc2c1` (stereo unspecified), the viability at 24 h, 20 µM in series [4] was more than 90%. For the same compound, in the series on RAW264.7 [2], the inhibition at 20 µM amounted to 72.2%. Also, the Activity entry in the series with Rattus norvegicus [5] and in the series with Rattus norvegicus [6] was “Non-toxic” in each case. For the same compound, the inhibition in vivo at 20 mg/kg in the series with Rattus norvegicus [3] is 68.3%.

For the compound `NS(=O)(=O)c1ccc2nc(N3N=C(c4ccc(Cl)cc4)CC3c3ccc(F)cc3)sc2c1` (stereo unspecified), the viability at 24 h, 20 µM in series [4] worked out at 86%. Also, the inhibition at 20 µM in the series with RAW264.7 [2] was 38%.

On to `Cc1ccc(C2CC(c3ccc(Cl)cc3)=NN2c2nc3ccc(S(N)(=O)=O)cc3s2)cc1` (stereo unspecified), for which the inhibition at 20 µM in the series on RAW264.7 [2] is 38%.

As for `NS(=O)(=O)c1ccc2nc(N3N=C(c4ccc(Br)cc4)CC3c3ccc(F)cc3)sc2c1` (stereo unspecified), the viability at 24 h, 20 µM in series [4] came to 86%. Further, in the series with RAW264.7 [2], the inhibition at 20 µM is 38%.

`COc1ccc(C2CC(c3ccc(Br)cc3)=NN2c2nc3ccc(S(N)(=O)=O)cc3s2)cc1` (stereo unspecified): the viability at 24 h, 20 µM in series [4] is 86%. In addition, the inhibition at 20 µM in the series on RAW264.7 [2] is 38%.

For the compound `NS(=O)(=O)c1ccc2nc(N3N=C(c4ccc(Br)cc4)CC3c3ccc(Cl)cc3)sc2c1` (stereo unspecified), the viability at 24 h, 20 µM in series [4] turned out to be 90%. Also, in the series on RAW264.7 [2], the inhibition at 20 µM was 71.7%. The Activity entry in the series with Rattus norvegicus [5] and with Rattus norvegicus [6] was “Non-toxic” in each case.

For `Cc1ccc(-c2cc(C(F)(F)F)nn2-c2ccc(S(N)(=O)=O)cc2)cc1` [CELECOXIB], in the series on RAW264.7 [2], the inhibition at 20 µM is 53.4%. For the same compound, the Activity entry in the series on Rattus norvegicus [5] and in the series on Rattus norvegicus [6] was “Non-toxic” each time. Also, in the series with Rattus norvegicus [3], the inhibition in vivo at 20 mg/kg was determined as 67%.

One may read the inhibition as how much of the control response was suppressed. The term inhibition in vivo denotes the relative decrease from the control value, in per cent.
